Test results taken from patent publication US12043599B2, “Herbicidal compounds” (SYNGENTA PARTICIPATIONS AG, priority 2018, dated 2024).

Key:
Type in all cases: in vivo
Conditions in all cases: 250 g/h, evaluated after 13 days
[1] = system: Setaria faberi (SETFA); experiment: Post-emergence herbicidal glasshouse test, percentage damage
Outline: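 Wheat, barley and Setaria faberi were sprayed post-emergence after 8 days' growth (24/16 °C, 14 h light, 65% humidity) with compound in acetone/water (50:50) containing 0.5% Tween 20, at the indicated rates. On wheat, compounds were also applied with cloquintocet-mexyl at 50 g/ha. Damage was scored after 13 days on a five-point scale (5=80-100% to 1=0-19%).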

[2] = system: Avena fatua (AVEFA); experiment: as above
Outline: (§1)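 Pots of the weeds sprayed either 1 day after sowing (pre-emergence) or after 8 days' growth (post-emergence), at 250 g/h in acetone/water with 0.5% Tween 20. Grown in a glasshouse at 24/16° C. day/night with 14 h light and 65% humidity. Damage scored 13 days later on a 1–5 scale (5=80-100%, 1=0-19%).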

[3] = system: Alopecurus myosuroides (ALOMY); experiment: as above
Outline: as §1

[4] = system: Echinochloa crus-galli (ECHCG); experiment: as above
Outline: as §1

[5] = system: Lolium perenne (LOLPE); experiment: as above
Outline: as §1

[6] = system: Avena fatua (AVEFA); experiment: Pre-emergence herbicidal glasshouse test, percentage damage
Outline: as §1

[7] = system: Setaria faberi (SETFA); experiment: as above
Outline: as §1

[8] = system: Alopecurus myosuroides (ALOMY); experiment: as above
Outline: as §1

[9] = system: Echinochloa crus-galli (ECHCG); experiment: as above
Outline: as §1

[10] = system: Lolium perenne (LOLPE); experiment: as above
Outline: as §1

| Compound | SETFA POST percentage damage (five point scale) [1] | AVEFA POST percentage damage (five point scale) [2] | ALOMY POST percentage damage (five point scale) [3] | ECHCG POST percentage damage (five point scale) [4] | LOLPE POST percentage damage (five point scale) [5] | AVEFA PRE percentage damage (five point scale) [6] | SETFA PRE percentage damage (five point scale) [7] | ALOMY PRE percentage damage (five point scale) [8] | ECHCG PRE percentage damage (five point scale) [9] | LOLPE PRE percentage damage (five point scale) [10] |
| --- | --- | --- | --- | --- | --- | --- | --- | --- | --- | --- |
| CC#Cc1cc(C)c(C2C(=O)CC3(CCN(C(=O)NC(=O)c4cc(F)ccn4)CC3)CC2=O)c(C)c1 [Compound A164] | 5 (5=80-100%) | 5 (5=80-100%) | 5 (5=80-100%) | 5 (5=80-100%) | 5 (5=80-100%) | 5 (5=80-100%) | 5 (5=80-100%) | 4 (4=60-79%) | 5 (5=80-100%) | 5 (5=80-100%) |
| CC#Cc1cc(C)c(C2C(=O)CC3(CCN(C(=O)OC(C)(C)C)CC3)CC2=O)c(C)c1 [Compound A12, tert-butyl 9-(2,6-dimethyl-4-prop-1-ynyl-phenyl)-8,10-dioxo-3-azaspiro[5.5]undecane-3-carboxylate] | 5 (5=80-100%) | 5 (5=80-100%) | 5 (5=80-100%) | 5 (5=80-100%) | 5 (5=80-100%) | 4 (4=60-79%) | 5 (5=80-100%) | 4 (4=60-79%) | 5 (5=80-100%) | 5 (5=80-100%) |
| CC#Cc1cc(C)c(C2=C(OC(C)=O)CC3(CCN(C(N)=O)CC3)CC2=O)c(C)c1 [Compound P9] | 5 (5=80-100%) | 5 (5=80-100%) | 5 (5=80-100%) | 5 (5=80-100%) | 5 (5=80-100%) | 4 (4=60-79%) | 5 (5=80-100%) | 5 (5=80-100%) | 5 (5=80-100%) | 5 (5=80-100%) |
| CC#Cc1cc(C)c(C2C(=O)CC3(CCN(C(=O)Nc4cccnc4)CC3)CC2=O)c(C)c1 [Compound A22] | 5 (5=80-100%) | 5 (5=80-100%) | 5 (5=80-100%) | 5 (5=80-100%) | 5 (5=80-100%) | 5 (5=80-100%) | 5 (5=80-100%) | 5 (5=80-100%) | 5 (5=80-100%) | 5 (5=80-100%) |
| CC#Cc1cc(C)c(C2C(=O)CC3(CCN(C(=O)c4ccccc4F)CC3)CC2=O)c(C)c1 [Compound A84] | 5 (5=80-100%) | 5 (5=80-100%) | 5 (5=80-100%) | 5 (5=80-100%) | 5 (5=80-100%) | 4 (4=60-79%) | 5 (5=80-100%) | 5 (5=80-100%) | 5 (5=80-100%) | 5 (5=80-100%) |
| CC#Cc1cc(C)c(C2C(=O)CC3(CCN(C(=O)NC(C)(C)C)CC3)CC2=O)c(OC)c1 [Compound A76] | 5 (5=80-100%) | 5 (5=80-100%) | 5 (5=80-100%) | 5 (5=80-100%) | 5 (5=80-100%) | 5 (5=80-100%) | 5 (5=80-100%) | 5 (5=80-100%) | 5 (5=80-100%) | 5 (5=80-100%) |
| CC#Cc1cc(C)c(C2=C(OC(=O)c3ccccn3)CC3(CCN(C(=O)c4ccccn4)CC3)CC2=O)c(C)c1 [Compound P25] | 5 (5=80-100%) | 5 (5=80-100%) | 5 (5=80-100%) | 5 (5=80-100%) | 5 (5=80-100%) | 5 (5=80-100%) | 5 (5=80-100%) | 5 (5=80-100%) | 5 (5=80-100%) | 5 (5=80-100%) |
| CC#Cc1cc(C)c(C2C(=O)CC3(CCN(C(=O)COC(C)C)CC3)CC2=O)c(C)c1 [Compound A171] | 5 (5=80-100%) | 5 (5=80-100%) | 5 (5=80-100%) | 5 (5=80-100%) | 5 (5=80-100%) | 5 (5=80-100%) | 5 (5=80-100%) | 5 (5=80-100%) | 5 (5=80-100%) | 5 (5=80-100%) |
| CC#Cc1cc(C)c(C2C(=O)CC3(CCN(S(=O)(=O)CC4COCCO4)CC3)CC2=O)c(C)c1 (centres unmarked) [Compound A39] | 5 (5=80-100%) | 5 (5=80-100%) | 5 (5=80-100%) | 5 (5=80-100%) | 5 (5=80-100%) | 4 (4=60-79%) | 5 (5=80-100%) | 4 (4=60-79%) | 5 (5=80-100%) | 5 (5=80-100%) |
| CC#Cc1cc(C)c(C2C(=O)CC3(CCN(C(=O)CCCOC)CC3)CC2=O)c(C)c1 [Compound A193] | 5 (5=80-100%) | 5 (5=80-100%) | 5 (5=80-100%) | 5 (5=80-100%) | 5 (5=80-100%) | 5 (5=80-100%) | 5 (5=80-100%) | 5 (5=80-100%) | 5 (5=80-100%) | 5 (5=80-100%) |
| CC#Cc1cc(C)c(C2=C(OC(=O)OC)CC3(CCN(C(=O)COCC)CC3)CC2=O)c(C)c1 [Compound P51] | 5 (5=80-100%) | 5 (5=80-100%) | 5 (5=80-100%) | 5 (5=80-100%) | 5 (5=80-100%) | 5 (5=80-100%) | 5 (5=80-100%) | 5 (5=80-100%) | 5 (5=80-100%) | 5 (5=80-100%) |
